Data taken from article PMC11363342 (ACS Central Science, 2024).
Read-outs that look alike come from different tables or passages of the source.

How the values were obtained:
SARS-CoV-2 [1] = assay: Viral load reduction assay in ALI-PBEC; assay type: cell-based; details: 48 hpi
Protocol: Thus, ALI-PBEC cells were infected with SARS-CoV-2 (10^5 PFU per insert; estimated MOI ∼0.1) and treated with compounds on the apical side of the cells for 2 h. For uninfected controls, PBS was used instead of virus. The compounds were also present in the basal medium during the whole experiment until 48 hpi, when samples were harvested. […] (Figure 4D).
ALI-PBEC were pretreated with compound in the basal medium for 3 h. Cells were infected with 100 000 PFU of SARS-CoV-2/Leiden0008 per insert (estimated MOI 0.1) with compounds present in the inoculum. After 2 h at 37 °C on a rocking platform, the inoculum was removed and cells were washed three times with warm PBS. Compounds stayed present in the basal medium until 48 h postinfection. At 48 hpi the viral load was determined by plaque assay on a 200 μL apical wash (PBS incubated on the apical side of the insets for 10 min at 37 °C). For assessing cytotoxicity with the CyQuant LDH cytotoxicity assay (Thermo Fisher Scientific), 10 μL of apical wash was diluted 5 times with 40 μL of PBS. A 25 μL volume of this dilution was added to 25 μL of assay reagent and incubated for 30 min at RT in the dark. The plate was fixed and measured at a wavelength of 490 nm (Envision reader, PerkinElmer). For the activity-based probe labeling, the insets were washed one more time with PBS and processed as described previously.[52] Briefly, cells were lysed with 60 μL of potassium phosphate buffer per insert. A fluorescently labeled probe (JJB383) was diluted in MclIvaine buffer (pH 7) to a 10 μM stock and incubated for 5 min on ice. For labeling of the cell lysate, 10 μL of lysate was added to 10 μL of MclIvaine buffer and 5 μL of probe. The lysate was incubated for 30 min at 37 °C before the addition of 10 μL of Laemmli sample buffer (4×). Samples were heated at 95 °C for 5 min and separated in a 10% SDS-PAGE gel. Fluorescence was measured at a wavelength of 625 nm (Cy5) with a Uvitec Alliance Q9 imager (BioSPX). After imaging, the gels were stained with GelCode Blue stain reagent (Thermo Fisher Scientific) and visualized using a Uvitec Essential V6 system to check for equal loading.

SARS-CoV-2 [2] = assay type: cell-based
SARS-CoV-2 [3] = assay: microbe, parasite or virus in culture; assay type: cell-based
GBA3 = details: cited from earlier work
in vitro = details: African green monkey
[4] = system: recombinant Mus musculus α-Glu II; assay: Thermal shift assay (SYPRO orange); assay type: binding; details: 10 μM Mmα-Glu-II with 50 μM inhibitor; unliganded control 49.9 °C
SARS-CoV-2 [5] = assay: CPE reduction assay on H1299/ACE2 lung epithelial cells; assay type: cell-based; details: compared with Vero E6
HCoV-229E = assay type: cell-based
GBA1 = details: cited from earlier work
GBA2 = details: cited from earlier work
SARS-CoV-2 [6] = assay: Plaque reduction assay on H1299/ACE2 cells (time of treatment); assay type: cell-based; details: H1299/ACE2; compound 11 at 5 μM
Protocol: To evaluate whether compound 11 has an effect on host proteins (for instance, ACE2) involved in viral entry, we treated monolayers of H1299/ACE2 cells with compound 11 either 48 or 2 h before infection, during infection (0–1 h), or starting from 1 h postinfection (hpi). The cell monolayers were infected with ∼20 PFU of SARS-CoV-2, and after 1 h the inoculum was replaced with an overlay. In one well (Post Infection) the overlay contained compound 11. Remdesivir, a viral RNA synthesis inhibitor, was added to the overlay of another well, as a positive control for blocking virus replication in the cell.
H1299/ACE2 cells were seeded in a 6-well plate at a density of 1.3 × 10^5 cells/well (20% confluency), 96 h prior to infection. […] The monolayers were infected with ∼20 PFU of SARS-CoV-2/Leiden0008. In the postinfection treatment, the compound (or RDV) was added to the Avicel overlay. Cells were incubated for 4 days at 37 °C before fixation and crystal violet staining.

[7] = Severe acute respiratory syndrome coronavirus 2, Vero C1008, Vero E6 cells, SARS-CoV-2/Leiden0002, n = 3, mean ± SEM, read-out: EC50 (μM), SARS-CoV-2 CPE reduction
[8] = Severe acute respiratory syndrome coronavirus 2, Vero C1008, read-out: EC50 (μM), SARS-CoV-2 CPE reduction

SMILES: CCCCN1C[C@H](O)[C@@H](O)[C@H](O)[C@H]1CO [Compound 1, N-butyl-DNJ, reference compound]
- viral load in ALI-PBEC (in words) (SARS-CoV-2 [1]; 100 μM (highest concentration)): only a slight effect
- reduction of infectious progeny production (in words) (SARS-CoV-2 [2]): only minimally
- EC50 (SARS-CoV-2 [3]; [7]): 114 ± 10.3 µM
- EC50 (SARS-CoV-2 [3]; Vero E6 cells, SARS-CoV-2/Leiden0002, n = 3, mean ± SEM, read-out: EC50 (μM), SARS-CoV-2 CPE reduction): > 100 µM
- inhibition of GBA3 (GBA3): inhibits
- CC50 at 3 days (in vitro): > 200 µM

SMILES: OC[C@@H]1[C@@H](O)[C@H](O)[C@@H](O)CN1CCCCCOCc1ccc2ccccc2c1 [Compound 2, naphthyl-deoxynojirimycin]
- viral load in ALI-PBEC (in words) (SARS-CoV-2 [1]; 10 and 100 μM): reduced SARS-CoV-2 to similar titers
- EC50 (SARS-CoV-2 [3]; [7]): 6 ± 0.4 µM
- CC50 at 3 days (in vitro): > 200 µM
- Tm/°C [4]: 63.5 °C
- EC50 values in CPE reduction assay (in words) (SARS-CoV-2 [5]): comparable EC50 values
- virus infectivity of HCoV-229E (in words) (HCoV-229E): did not show any reduction in virus infectivity

SMILES: OC[C@@H]1[C@@H](O)[C@H](O)[C@@H](O)CN1CCCCCOCc1cc2ccccc2c2ccccc12 [Compound 3]
- EC50 (SARS-CoV-2 [3]; [7]): 3.25 ± 0.42 µM
- CC50 (in vitro): 50 µM

SMILES: OC[C@@H]1[C@@H](O)[C@H](O)[C@@H](O)CN1CCCCCOCC1CCCO1 (some centres unmarked) [Compound 4]
- EC50 (SARS-CoV-2 [3]; [7]): 51.7 ± 3.37 µM
- CC50 at 3 days (in vitro): > 200 µM

SMILES: OC[C@@H]1[C@@H](O)[C@H](O)[C@@H](O)CN1CCCCCOCC12CC3CC(CC(C3)C1)C2 [Compound 5]
- EC50 (SARS-CoV-2 [3]; [7]): 13.9 ± 8 µM
- CC50 at 3 days (in vitro): 200 µM

SMILES: CCCCCCOCCCCCN1C[C@H](O)[C@@H](O)[C@H](O)[C@H]1CO [Compound 6]
- EC50 (SARS-CoV-2 [3]; [7]): 11.8 ± 0.8 µM
- CC50 at 3 days (in vitro): > 200 µM

SMILES: CC(C)(C)COCCCCCN1C[C@H](O)[C@@H](O)[C@H](O)[C@H]1CO [Compound 7]
- EC50 (SARS-CoV-2 [3]; [7]): 22.7 ± 4.3 µM
- CC50 at 3 days (in vitro): > 200 µM

SMILES: OC[C@H]1[C@@H](O)[C@H](O)[C@@H](O)CN1CCCCCOCC12CC3CC(CC(C3)C1)C2 [Compound 8]
- EC50 (SARS-CoV-2 [3]; [7]): 104 ± 12.4 µM
- CC50 at 3 days (in vitro): > 200 µM

SMILES: OC[C@@H]1[C@@H](O)[C@H](O)[C@@H](O)[C@H]2O[C@@H]12 [Compound 9, 1,6-epi-cyclophellitol]
- inhibition of GBA1 (GBA1): partially inhibit
- EC50 (SARS-CoV-2 [3]; [7]): > 200 µM
- inhibition of GBA2 (GBA2): partially inhibit
- CC50 at 3 days (in vitro): > 200 µM

SMILES: OC[C@@H]1[C@@H](O)[C@H](O)[C@@H](O)[C@H]2N[C@@H]12 [Compound 10, 1,6-epi-cyclophellitol aziridine]
- inhibition of GBA1 (GBA1): partially inhibit
- EC50 (SARS-CoV-2 [3]; [7]): 14 ± 3.2 µM
- inhibition of GBA2 (GBA2): partially inhibit
- CC50 at 3 days (in vitro): > 200 µM

SMILES: CO[C@@H]1[C@@H](O)[C@H](O)[C@@H](CO)[C@@H]2OS(=O)(=O)O[C@H]12 [Compound 12]
- EC50 (SARS-CoV-2 [3]; [7]): > 200 µM
- CC50 at 3 days (in vitro): > 200 µM

SMILES: CO[C@H]1[C@H](O)[C@@H](CO)[C@@H]2OS(=O)(=O)O[C@@H]2[C@@H]1O [Compound 13]
- EC50 (SARS-CoV-2 [3]; [7]): > 200 µM
- CC50 at 3 days (in vitro): > 200 µM

SMILES: CO[C@H]1[C@H](O)[C@@H](O)[C@H]2OS(=O)(=O)O[C@H]2[C@@H]1CO [Compound 14]
- EC50 (SARS-CoV-2 [3]; [7]): 16.9 ± 2.1 µM
- CC50 at 3 days (in vitro): > 200 µM

SMILES: COC[C@@H]1[C@@H](O)[C@H](O)[C@@H](O)[C@H]2OS(=O)(=O)O[C@@H]12 [Compound 15]
- EC50 (SARS-CoV-2 [3]; [7]): > 100 µM
- CC50 at 3 days (in vitro): > 200 µM

SMILES: CO[C@H]1[C@H]2OS(=O)(=O)O[C@H]2[C@H](CO)[C@@H](O)[C@@H]1OC [Compound 16]
- EC50 (SARS-CoV-2 [3]; [7]): > 200 µM
- CC50 at 3 days (in vitro): > 200 µM

SMILES: O=S1(=O)N[C@H]2[C@H](CO)[C@@H](O)[C@H](O)[C@@H](O)[C@H]2O1 [Compound 17]
- EC50 (SARS-CoV-2 [3]; [7]): 45.3 ± 1.52 µM
- CC50 at 3 days (in vitro): > 200 µM

SMILES: O=S1(=O)N[C@@H]2[C@H](O)[C@@H](O)[C@H](O)[C@@H](CO)[C@@H]2O1 [Compound 18]
- EC50 (SARS-CoV-2 [3]; [7]): > 100 µM
- CC50 at 3 days (in vitro): > 200 µM

SMILES: O=S1(=O)N[C@@H]2[C@H](O)[C@@H](O)[C@H](O)[C@@H](CO)[C@@H]2N1 [Compound 19]
- EC50 (SARS-CoV-2 [3]; [7]): > 200 µM
- CC50 at 3 days (in vitro): > 200 µM

SMILES: OC[C@H]1C[C@@H]2O[C@@H]2[C@@H](O)[C@@H]1O [Compound 20]
- EC50 (SARS-CoV-2 [3]; [7]): 17.7 ± 1.28 µM
- CC50 at 3 days (in vitro): > 200 µM
- Tm/°C [4]: 64.7 °C

SMILES: OC[C@H]1C[C@@H]2N[C@@H]2[C@@H](O)[C@@H]1O [Compound 21]
- EC50 (SARS-CoV-2 [3]; [8]): 67.6 ± 14.8 µM
- CC50 at 3 days (in vitro): > 200 µM
- Tm/°C [4]: 49.5 °C

SMILES: O=S1(=O)O[C@@H]2[C@@H](O)[C@H](O)[C@@H](CO)C[C@@H]2O1 [Compound 22]
- EC50 (SARS-CoV-2 [3]; [7]): > 200 µM
- CC50 at 3 days (in vitro): > 200 µM
- Tm/°C [4]: 51.7 °C

SMILES: OC[C@H]1C[C@H]2[C@@H]([C@@H](O)[C@@H]1O)N2CCCCCOCc1ccc2ccccc2c1 (some centres unmarked) [Compound 23]
- EC50 (SARS-CoV-2 [3]; [8]): 64.9 ± 0.77 µM
- CC50 at 3 days (in vitro): > 200 µM

SMILES: OC[C@H]1C[C@H]2[C@@H]([C@@H](O)[C@@H]1O)N2CCCCCOCc1ccc(-c2ccccc2)cc1 (some centres unmarked) [Compound 24]
- EC50 (SARS-CoV-2 [3]; [8]): 28.6 ± 0.21 µM
- CC50 at 3 days (in vitro): 200 µM

SMILES: CCCC(=O)N1[C@@H]2[C@@H](O)[C@H](O)[C@@H](CO)C[C@@H]21 [Compound 25]
- EC50 (SARS-CoV-2 [3]; [7]): 22.2 ± 4.12 µM
- CC50 at 3 days (in vitro): > 200 µM

SMILES: CCCCN1[C@@H]2[C@@H](O)[C@H](O)[C@@H](CO)C[C@@H]21 (some centres unmarked) [Compound 26]
- EC50 (SARS-CoV-2 [3]; [8]): 91.4 ± 20.6 µM
- CC50 at 3 days (in vitro): > 200 µM

SMILES: OC[C@H]1C[C@H]2[C@@H]([C@@H](O)[C@@H]1O)N2CCCCCOCC12CC3CC(CC(C3)C1)C2 (some centres unmarked) [Compound 27]
- EC50 (SARS-CoV-2 [3]; [8]): 26.9 ± 1.3 µM
- CC50 at 3 days (in vitro): 100 µM

SMILES: OC[C@H]1C[C@H]2[C@@H]([C@@H](O)[C@@H]1O)N2CCCCCOCc1cccc2ccccc12 (some centres unmarked) [Compound 28]
- EC50 (SARS-CoV-2 [3]; [8]): 56.7 ± 1.38 µM
- CC50 at 3 days (in vitro): > 200 µM

SMILES: COCCCCCCCCCN1C[C@H](O)[C@@H](O)[C@H](O)[C@H]1CO [UV-4, reference compound]
- EC50 values in CPE reduction assay (in words) (SARS-CoV-2 [5]): comparable EC50 values

SMILES: CCC(CC)COC(=O)[C@H](C)N[P@](=O)(OC[C@H]1O[C@@](C#N)(c2ccc3c(N)ncnn23)[C@H](O)[C@@H]1O)Oc1ccccc1 [remdesivir, reference compound]
- plaque formation, treatment after infection (in the overlay) (SARS-CoV-2 [6]): prevented the formation of plaques
